Source: patent publication US20070059632A1, “Method of manufacturing a semiconductor device” (priority 2003, published 2007)

What was measured:
Type in all cases: physicochemical
[1] = Solubility of compound in safety solvent; conditions: safety solvent (PGMEA or EL) at 23° C.
Protocol: (1) Solubility of Compound in Safety Solvent
Each compound was tested for its solubility in safety solvent (PGMEA or EL) at 23° C. The solubility was rated as “A” when dissolved in an amount of 5% by weight or more, “B” when dissolved in an amount of 0.1% by weight or more but less than 5% by weight, and “C” when not dissolved in an amount of 0.1% by weight or more.

Alkali developability = test: Alkali developability; parameters: key: A: the resist film dissolved completely and disappeared; C: the resist film remained not dissolved even in a slight amount; conditions: tested on the corresponding polyphenol compound A before introducing the acid-dissociating group; film immersed in 2.38% aqueous TMAH for 10 s
Protocol: (5) Alkali Developability
A polyphenol compound A corresponding to each compound before introducing the acid-dissociating functional group was examined for its developability with an alkali developing solution.
A 10% by weight solution of each polyphenol compound A in PGMEA was spin-coated using a spin coater, to form a resist film of about 0.2 μm thick. After heating on a hot plate for 3 min at 110° C., the resist film was immersed in a 2.38% aqueous solution of TMAH for 10 s. The results were rated as “A” when the resist film dissolved completely and disappeared, and “C” when the resist film remained not dissolved even in a slight amount.

[2] = Inhibition of dissolution in alkali developing solution; parameters: key: A: no change was visually noticed in the state of film; C: the surface was roughened or a part of the film was lost because of dissolution; conditions: resist film immersed in 2.38% aqueous solution of TMAH for 3 min
Protocol: (3) Inhibition of Dissolution in Alkali Developing Solution
The resist film formed in the evaluation 2 was immersed in a developing solution (2.38% aqueous solution of TMAH) for 3 min. The results were rated as “A” when no change was visually noticed in the state of film, and “C” when the surface was roughened or a part of the film was lost because of dissolution.

Row | (5) Alkali developability (Alkali developability) | (3) Inhibition of dissolution in developing solution [2] | Structure (SMILES) | (1) Solubility in safety solvent [1]
1 | A | A | CC(C)(C)OC(=O)Oc1ccc(C(c2ccc(OC(=O)OC(C)(C)C)cc2)c2ccc(OC(=O)OC(C)(C)C)cc2)cc1 [Compound 14-3, reference compound] | A (dissolved in an amount of 5% by weight or more)
2 | A | A | CC(C)(C)OC(=O)Oc1ccc(-c2cc(-c3ccc(OC(=O)OC(C)(C)C)cc3)cc(-c3ccc(OC(=O)OC(C)(C)C)cc3)c2)cc1 [Compound 14-4, reference compound] | A (dissolved in an amount of 5% by weight or more)
3 | A | C | Cc1cc(C(C)(c2ccc(O)c(C)c2)c2ccc3ccccc3c2)ccc1O [Compound 14-5, 1-(2-naphthyl)-1,1-bis(3-methyl-4-hydroxyphenyl)ethane, reference compound] | A (dissolved in an amount of 5% by weight or more)

Further lines, the molecule ahead of its results:

Row | Structure (SMILES) | (5) Alkali developability (Alkali developability) | (3) Inhibition of dissolution in developing solution [2] | (1) Solubility in safety solvent [1]
4 | CCCCOC(=O)Oc1ccc2c(c1)Oc1cc(OC(=O)OCCCC)ccc1C2c1ccc(-c2ccccc2)cc1 [Compound 10-1] | A | A | A (dissolved in an amount of 5% by weight or more)
5 | Oc1ccc2c(c1)Oc1cc(OC3CCCCO3)ccc1C2c1ccc(-c2ccccc2)cc1 (stereo not drawn) [Compound 10-2] | A | A | A (dissolved in an amount of 5% by weight or more)
6 | CC(C)(C)OC(=O)Oc1ccc2c(c1)Oc1cc(O)ccc1C21c2ccccc2-c2ccccc21 [Compound 11-1] | A | A | A (dissolved in an amount of 5% by weight or more)
7 | CC(C)(C)OC(=O)Oc1ccc2c(c1)Oc1cc(OC(=O)OC(C)(C)C)ccc1C21c2ccccc2-c2ccccc21 [Compound 11-2] | A | A | B (dissolved in an amount of 0.1% by weight or more but less than 5% by weight)
8 | CCOC(C)Oc1ccc2c(c1)Oc1cc(O)ccc1C21c2ccccc2-c2ccccc21 (stereo not drawn) [Compound 11-3] | A | A | A (dissolved in an amount of 5% by weight or more)
9 | CCOC(C)Oc1ccc2c(c1)Oc1cc(O)ccc1C21Cc2cccc3cccc1c23 (stereo not drawn) [Compound 12-1] | A | A | A (dissolved in an amount of 5% by weight or more)
